We go through 1 compound from patent US10894040B2, “S1P modulating agents” (BIOGEN MA INC., priority 2011, dated 2021).

Structures are written as SMILES.

In general, EC50 refers to the concentration at which the effect is half-maximal. High values mean lower potency in that assay, low ones higher potency in that assay.

This assay relates to A2B5+ OPCs. Nature of the assay: OPC differentiation assay. Particulars: 3-day incubation. Format: cell-based, Sprague Dawley rats. As for the experimental part:
OPC Differentiation Assay
Enriched populations of oligodendrocytes were grown from post-natal day 2 (P2) female Sprague Dawley rats. The forebrain was dissected out and placed in Hank's buffered saline solution (HBSS; Invitrogen, Grand Island, N.Y.). The tissue was cut into 1 mm fragments and incubated at 37° C. for 15 minutes in 0.01% trypsin and 10 μg/mL DNase. Dissociated cells were plated on poly-L-lysine-coated T75 tissue culture flasks and grown at 37° C. for 10 days in Dulbecco's modified Eagle's medium (DMEM) with 20% fetal calf serum (Invitrogen). A2B5^+ OPCs were collected by shaking the flask overnight at 200 rpm and 37° C., resulting in a 95% pure population.
For the differentiation assay, 2 μM and 20 μM antagonist or the same concentrations of vehicle (DMSO) were applied to OPCs cultured in CNTF/T3 containing media. After a 3-day incubation, […], cell were lysed and then subjected to MSD (Meso Scale Discovery-R) analysis. EC50 was calculated by Prism using a nonlinear sigmoidal dose-response curvecells. Alternatively, cells were lysed in 80 μL lysis buffer (50 mM HEPES [4-(2-hydroxyethyl)-1-piperazineethanesulfonic acid], pH 7.5, 150 mM NaCl, 1.5 mM MgCl2, 1 mM ethylene glycol tetraacetic acid [EGTA], 1% Triton X-100 and 10% glycerol) for 30 minutes at 4° C. After centrifugation at 14,000 g for 15 minutes, the supernatants were boiled in Laemmli sample buffer, subjected to 4-20% SDS-PAGE, and analyzed by Western blotting with anti-MBP, anti-myelin-associated glycoprotein (MAG), or anti-beta actin antibodies. The secondary antibodies used were anti-mouse IgG-HRP (horseradish peroxidase) and anti-rabbit IgG-HRP respectively.

Take `CC(C)(C)[C@H]1CC[C@@H](Oc2ccc3cc(CN4CCC(C(=O)O)CC4)ccc3c2)CC1` [Example 26, 1-((6-(cis-4-tert-Butylcyclohexyloxy)naphthalen-2-yl)methyl)piperidine-4-carboxylic acid]: the “activity in the OPC assay at 20 micromolar” value (20 micromolar, symbols not defined in the patent) is “+ to ++++”. Besides, the concentration giving a half-maximal response (EC50) (Rattus norvegicus, 72 h, MSD analysis) is < 10 µM.
